# Legend:
# NSCLC cell lines = test: Erlotinib sensitivity (IC50, Celltiter-Glo cell viability) of NSCLC cell lines versus ERBB2 methylation; assay type: cell-based; conditions: in vitro, 72 hrs, 3 nM TGFα, IC50 values only in FIG. 5
# Method: After 72 hrs, cell viability was measured using the Celltiter-Glo Luminescent Cell Viability Assay (Promega).
# [1] = system: advanced, treatment-refractory NSCLC; conditions: phase III, monotherapy, patients with advanced; cited from earlier work
# NSCLC = conditions: phase III, first-line, in combination with standard chemotherapy; cited from earlier work
# pancreatic cancer = conditions: phase III, first-line, in combination with gemcitabine; cited from earlier work
smiles,measurement,setting,value
"C#Cc1cccc(Nc2ncnc3cc(OCCOC)c(OCCOC)cc23)c1 [erlotinib, [6,7-bis(2-methoxyethoxy)-4-quinazolin-4-yl]-(3-ethynylphenyl) amine]",correlation of ERBB2 hypomethylation with erlotinib sensitivity,NSCLC cell lines,strongly correlated
same,disease progression,[1],delayed disease progression
same,survival,[1],significantly prolonged survival
same,worsening of lung cancer-related symptoms,[1],delayed worsening of lung cancer-related symptoms
same,survival,NSCLC,did not improve survival
same,survival,pancreatic cancer,did improve survival
COc1cc2ncnc(Nc3ccc(F)c(Cl)c3)c2cc1OCCCN1CCOCC1 [gefitinib],survival,NSCLC,did not improve survival

# — patent publication US11261498B2, “Methods for diagnosing and treating cancer” (priority 2011, dated 2022)
